Where two headings read alike, the source gives them in different places.
Tests used:
Assay type in all cases: cell-based
OR2W1 = biological target: T1, OR2W1 (Homo sapiens, UniProt Q9Y3N9); assay: Luciferase reporter assay: suppression of the skatole response of OR2W1 expressed in HEK293 cells; settings: for inhibition at 100 µM: read-out: Inhibition rate 2W1
T1 construct: expressed in transfected cells; host or cells: HEK293
T1 sequence (Q9Y3N9 1-320): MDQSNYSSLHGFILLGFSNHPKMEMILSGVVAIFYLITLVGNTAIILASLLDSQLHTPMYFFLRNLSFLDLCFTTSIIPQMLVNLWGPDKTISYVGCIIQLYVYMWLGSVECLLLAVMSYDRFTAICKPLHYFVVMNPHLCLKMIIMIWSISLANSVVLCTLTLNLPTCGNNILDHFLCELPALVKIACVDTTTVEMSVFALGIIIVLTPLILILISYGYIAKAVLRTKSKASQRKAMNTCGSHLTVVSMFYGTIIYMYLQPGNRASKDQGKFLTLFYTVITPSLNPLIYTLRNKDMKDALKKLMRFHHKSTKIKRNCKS
Method: (§1) A reaction solution having a composition shown in Table 1 was prepared on a clean bench, and left to stand for 15 minutes. The solution was dispensed to each well of a 96-well plate (BD). Subsequently, HEK293 cells (100 μL, 3×10^5 cells/cm^2) were seeded in each well and cultured for 24 hours in an incubator at 37° C. and under 5% CO2 conditions.
(§2) The olfactory receptor expressed in HEK293 cells activates adenylate cyclase with the aid of Gαs present in cells, to thereby increase intracellular cAMP level. In this study, odorant response was measured by a luciferase reporter gene assay which monitored the intracellular cAMP level as the luminescence value derived from a firefly luciferase gene (fluc2P-CRE-hygro). Also, a Renilla luciferase gene fused downstream of a CMV promoter (hRluc-CMV) was also transfected to HEK293 cells as an internal standard to correct errors in gene transfer efficiency and number of cells.
(§3) Cell culturing was performed for four hours in a CO2-incubator, whereby the luciferase gene sufficiently expressed in the cells. Luciferase activity was measured by means of a Dual-Glo™ luciferase assay system (promega) according to an instruction manual thereof. The luminescence value derived from firefly luciferase induced by odorant stimulation was divided by the luminescence value of cells which were not stimulated with odorants. The thus-obtained—called “fold increase”—was employed as an index for response intensity.
(§4) The response inhibition rate of a test substance was calculated as follows. Firstly, luminescence value derived from firefly luciferase induced by stimulation with skatole (X), and luminescence value in cells which expressed the same receptor but were not stimulated with skatole (Y) were determined. By subtracting Y from X, the receptor activity by stimulation with skatole alone (X−Y) was determined. Similarly, the luminescence value induced by stimulation with a mixture of skatole and a test substance (Z) was determined. Through subtracting Y (the luminescence value in cells which expressed the same receptor but were not stimulated with skatole) from Z, the receptor activity (Z−Y) by stimulation with a mixture of skatole and the test substance was obtained. From the thus-obtained receptor activity by stimulation with skatole alone (X−Y) and the receptor activity in the presence of a test material (Z−Y), the response inhibition rate of the test substance was calculated by the following equation: Inhibition rate (%)={1−(Z−Y)/(X−Y)}×100.
(§5) In each case, multiple independent experiments were performed in duplicate, and the average of each experiment was used.

OR5K1 = biological target: T2, OR5K1 (Homo sapiens, UniProt Q8NHB7); assay: Luciferase reporter assay: suppression of the skatole response of OR5K1 expressed in HEK293 cells; settings: for inhibition at 100 µM: read-out: Inhibition rate 5K1
T2 construct: expressed in transfected cells; host or cells: HEK293
T2 sequence (Q8NHB7 1-308): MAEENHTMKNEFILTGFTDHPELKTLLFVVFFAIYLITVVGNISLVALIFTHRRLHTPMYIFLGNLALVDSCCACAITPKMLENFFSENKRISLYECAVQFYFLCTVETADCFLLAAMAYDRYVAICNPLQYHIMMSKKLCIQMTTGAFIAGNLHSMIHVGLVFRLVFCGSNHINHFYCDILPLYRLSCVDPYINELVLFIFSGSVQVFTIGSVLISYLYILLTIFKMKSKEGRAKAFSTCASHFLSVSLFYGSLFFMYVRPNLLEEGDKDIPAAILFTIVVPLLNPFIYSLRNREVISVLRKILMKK
Method: as §1, §2, §3, §4, §5

OR8H1 = biological target: T3, OR8H1 (Homo sapiens, UniProt Q8NGG4); assay: Luciferase reporter assay: suppression of the skatole response of OR8H1 expressed in HEK293 cells; settings: for inhibition at 100 µM: read-out: Inhibition rate 8H1
T3 construct: expressed in transfected cells; host or cells: HEK293
T3 sequence (Q8NGG4 1-311): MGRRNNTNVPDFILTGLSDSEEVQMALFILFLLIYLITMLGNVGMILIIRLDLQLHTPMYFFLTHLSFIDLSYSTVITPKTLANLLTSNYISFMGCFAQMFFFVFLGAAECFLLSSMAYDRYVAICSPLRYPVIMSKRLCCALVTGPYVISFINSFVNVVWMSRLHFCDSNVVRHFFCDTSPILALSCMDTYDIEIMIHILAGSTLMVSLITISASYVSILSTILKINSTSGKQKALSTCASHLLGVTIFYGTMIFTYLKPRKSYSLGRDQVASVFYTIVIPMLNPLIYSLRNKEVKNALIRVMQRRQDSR
Method: as §1, §2, §3, §4, §5

OR5P3 = biological target: T4, OR5P3 (Homo sapiens, UniProt Q8WZ94); assay: Luciferase reporter assay: suppression of the skatole response of OR5P3 expressed in HEK293 cells; settings: test substance 100 μM mixed with 300 μM skatole, HEK293 cells expressing OR5P3
T4 construct: expressed in transfected cells; host or cells: HEK293
T4 sequence (Q8WZ94 1-311): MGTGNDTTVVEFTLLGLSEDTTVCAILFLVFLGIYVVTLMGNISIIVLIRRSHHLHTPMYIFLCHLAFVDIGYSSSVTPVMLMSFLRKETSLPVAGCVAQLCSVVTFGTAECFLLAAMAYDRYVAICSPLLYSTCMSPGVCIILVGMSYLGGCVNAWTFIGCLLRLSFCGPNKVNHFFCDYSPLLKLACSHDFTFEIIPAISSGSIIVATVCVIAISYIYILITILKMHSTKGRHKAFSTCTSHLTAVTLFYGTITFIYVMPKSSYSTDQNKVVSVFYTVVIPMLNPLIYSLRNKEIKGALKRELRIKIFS
Method: as §1, §2, §3, §4, §5

[1] = 4 h, test substance 100 μM mixed with 300 μM skatole, HEK293 cells expressing OR2W1
[2] = 4 h, test substance 100 μM mixed with 300 μM skatole, HEK293 cells expressing OR5K1
[3] = 4 h, test substance 100 μM mixed with 300 μM skatole, HEK293 cells expressing OR8H1
[4] = test substance 100 μM mixed with 300 μM skatole, HEK293 cells expressing OR2W1
[5] = test substance 100 μM mixed with 300 μM skatole, HEK293 cells expressing OR5K1
[6] = test substance 100 μM mixed with 300 μM skatole, HEK293 cells expressing OR8H1

| SMILES | inhibition at 100 µM (OR2W1; [1]) | inhibition at 100 µM (OR5K1; [2]) | inhibition at 100 µM (OR8H1; [3]) | Inhibition rate 5P3 (OR5P3) | Inhibition rate 2W1 (OR2W1; [4]) | Inhibition rate 5K1 (OR5K1; [5]) | Inhibition rate 8H1 (OR8H1; [6]) | inhibition at 100 µM (OR2W1; HEK293, 4 h) | inhibition at 100 µM (OR5K1; HEK293, 4 h) | inhibition at 100 µM (OR8H1; HEK293, 4 h) |
| --- | --- | --- | --- | --- | --- | --- | --- | --- | --- | --- |
| CC1(C)CCCC2=C1CC(C=O)CC2 (centres unmarked) [Cyclemone A, 1,2,3,4,5,6,7,8-octahydro-8,8-dimethyl-2-naphthaldehyde] | 50 to 80% | 20 to 50% | 20 to 50% | C (C >20%) | – | – | – | – | – | – |
| C=CCCC(=O)C1=CCCC(C)(C)C1 [Dinascone, 1-(5,5-Dimethyl-cyclohexen-1-yl)-4-penten-1-one] | > 80% | 50 to 80% | > 80% | B (B >50%) | – | – | – | – | – | – |
| CC1=CCC(C=CC(C)C(C)O)C1(C)C (centres unmarked) [Ebanol, 3-Methyl-5-(2,2,3-trimethyl-3-cyclopenten-1-yl)-4-penten-2-ol] | 50 to 80% | > 80% | 50 to 80% | A (A >80%) | – | – | – | – | – | – |
| CC(C)c1cccc(C(C)CC=O)c1 (stereo not drawn) [Florhydral, β-Methyl-3-(1-methylethyl)benzenepropanal] | 50 to 80% | 50 to 80% | 50 to 80% | B (B >50%) | – | – | – | – | – | – |
| CCOC(=O)OC1CCCCC1C(C)(C)C (centres unmarked) [Flormat, Ethyl 2-tert-butyl cyclohexyl carbonate] | – | – | – | A (A >80%) | A (A >80%) | B (B >50%) | A (A >80%) | – | – | – |
| CC1COCc2cc3c(cc21)C(C)(C)C(C)C3(C)C (centres unmarked) [Galaxolide, 1,3,4,6,7,8-Hexahydro-4,6,6,7,8,8-hexamethylcyclopenta-γ-2-benzopyran] | 50 to 80% | > 80% | > 80% | C (C >20%) | – | – | – | – | – | – |
| CC1C/C=C/CCCCCCCCCC(=O)C1 (centres unmarked) [Muscenone delta, (5E)-3-methylcyclopentadec-5-en-1-one] | 20 to 50% | < 20% | 20 to 50% | C (C >20%) | – | – | – | – | – | – |
| CC(C=O)C1CCCCC1 (centres unmarked) [Pollenal II, 2-Cyclohexylpropanal] | 20 to 50% | 20 to 50% | < 20% | C (C >20%) | – | – | – | – | – | – |
| CC(CO)CC(C)c1ccccc1 (centres unmarked) [Pumple fleur, 2-Methyl-4-phenylpentanol] | < 20% | 20 to 50% | 50 to 80% | A (A >80%) | – | – | – | – | – | – |
| CC(=O)C1=C(C)C2CC3(C1)C(C)CCC3C2(C)C (centres unmarked) [acetylcedrene, 1-(2,3,4,7,8,8a-Hexahydro-3,6,8,8-tetramethyl-1H-3a,7-methanoazulen-5-yl)-ethanone] | > 80% | > 80% | > 80% | A (A >80%) | – | – | – | – | – | – |
| CC/C=C\CC1=C(C)CCC1=O [cis-jasmone, (Z)-2-(2-Pentenyl)-3-methyl-2-cyclopenten-1-one] | 50 to 80% | < 20% | 20 to 50% | C (C >20%) | – | – | – | – | – | – |
| CC(C)=CCCC(C)CC=O (centres unmarked) [citronellal, 3,7-Dimethyl-6-octenal] | 20 to 50% | 20 to 50% | < 20% | C (C >20%) | – | – | – | – | – | – |
| O=C1CCCCCCC/C=C\CCCCCCC1 [civetone, (Z)-Cycloheptadeca-9-en-1-one] | – | – | – | B (B >50%) | – | – | – | > 80% | 50 to 80% | 50 to 80% |
| CC12CCC(C1)C(C)(C)C2O (centres unmarked) [fenchyl alcohol, 1,3,3-trimethyl-bicyclo[2.2.1]heptan-2-ol] | 20 to 50% | < 20% | 20 to 50% | C (C >20%) | – | – | – | – | – | – |
| CC(C)=CCC/C(C)=C/CO [geraniol, 2-trans-3,7-Dimethyl-2,6-octadien-1-ol] | < 20% | 20 to 50% | 50 to 80% | B (B >50%) | – | – | – | – | – | – |
| O=C1CCCCCCC=CCCCCCCC1 [globanone, 8-Cyclohexadecen-1-one] | > 80% | < 20% | < 20% | C (C >20%) | – | – | – | – | – | – |
| CC(CC=O)CCCC(C)(C)O (centres unmarked) [hydroxycitronellal, 7-Hydroxy-3,7-dimethyl-octanal] | 20 to 50% | < 20% | 20 to 50% | B (B >50%) | – | – | – | – | – | – |
| CC(C=O)Cc1ccc(C(C)(C)C)cc1 (stereo not drawn) [lilial, p-tert-Butyl-α-methyl hydrocinnamic aldehyde] | – | – | – | C (C >20%) | C (C >20%) | C (C >20%) | C (C >20%) | – | – | – |
| COC(C)(C)CCCC(C)CC=O (centres unmarked) [methoxycitronellal, 7-Methoxy-3,7-dimethyl-octanal] | 20 to 50% | 50 to 80% | 20 to 50% | C (C >20%) | – | – | – | – | – | – |
| C=CC(C)(O)CCC=C(C)CCC=C(C)C (centres unmarked) [nerolidol, 3,7,11-Trimethyl-1,6,10-dodecatrien-3-ol] | > 80% | < 20% | < 20% | A (A >80%) | – | – | – | – | – | – |
| CC(C)(C)C1CCC(O)CC1 (centres unmarked) [p-tert-butlcyclohexanol, 4-(1,1-Dimethylethyl)-cyclohexanol] | < 20% | > 80% | > 80% | A (A >80%) | – | – | – | – | – | – |
| O=C1CCCCCCCCCCCCCCO1 [pentalide, Oxacyclohexadecan-2-one] | 50 to 80% | 50 to 80% | > 80% | B (B >50%) | – | – | – | – | – | – |
| CC(CCO)CCc1ccccc1 (centres unmarked) [phenylhexanol, 3-Methyl-5-phenyl-1-pentanol] | < 20% | < 20% | < 20% | A (A >80%) | – | – | – | – | – | – |
